Patent US11291659B2, “P38 kinase inhibitors reduce DUX4 and downstream gene expression for the treatment of FSHD” (Fulcrum Therapeutics, Inc., priority 2017, dated 2022)

What was measured:
Assay type in all cases: cell-based, Human
FSHD myotubes = test: Myotube formation / fusion, MHC and DAPI staining; settings: FSHD myotubes; 10, 100, and 1000 nM
Procedure: (§1) On day 0, change to differentiation media. Remove plates from the incubator and aspirate the growth medium, Wash once with PBS, 100 μL for 96-wells and 1 mL for a 6-well plate, Add 100 μL or 2 mL of differentiation medium per well, 96- or 6-well respectively. Add antisense oligonucleotides or drug at the desire concentration and put back in the incubator. Fusion should start within day 1-2. Incubate for 3-4 days.
Briefly, cells were fixed in 4% paraformaldehyde and […] for 10 min at room temperature. Cells were permeabilized with PBST (1×PBS solution with 0.1% Triton X-100) before blocking with 10% Normal Donkey Serum or 3% BSA (NDS) in PBST. […] DUX4 was detected by immunocytochemistry using the E5-5 antibody in differentiated FSHD myotubes. Activated Caspase-3 was detected cell signaling antibody that we're using for ICC, Asp175 (https://www.cellsignal.com/products/primary-antibodies/cleaved-caspase-3-asp175-antibody/9661).
Immortalized FHSD myotubes were differentiated and treated with DMSO vehicle control or FTX-1821 at concentrations of 1 μM, 0.33 μM, 0.11 μM, or 0.037 μM. […] The nuclei in myotubes were quantified according to MHC staining (FIG. 8B).

[1] = test system: MBD3L2 mRNA (DUX4 downstream gene); test: MBD3L2 mRNA expression by qPCR in FSHD myotubes
Procedure: Cell Plating: Performed three days prior to treatment, 10000 cells were plated per well on gelatinized 96-well plates, or 100000 cells on gelatinized 6-well plates.
(§2) For ASO or compound treatments cells were plate into 100 μL of Promocell growth medium containing ASO or compounds at the described concentrations.
as §1
(§3) Cells were removed from the incubator and media aspirated. Quickly lysed following one of the following protocols: For lysis in 96-well plates direct lysis and one-step RT-Preamp qPCR protocol described below. For each 96-well prepare a mix containing: 19.5 μL Roche Realtime Ready lysis buffer, 0.25 μL RNAse inhibitor, 0.25 μL DNAseI (from Thermo not the included one in the kit). 20 μL of the mix was added to each well, mix 5 times and incubated 5 minutes at RT or alternatively shaken vigorously for 15 minutes. Lysis was observed under the microscope. Samples were frozen −80° C. at least for 15 minutes,
(§4) For qPCR, dilute 1:10 and use 2 μL for a 10 μL 1-step RT-qPCR reaction. For detection of GAPDH, RPLP0, TBP, MYOG, FRG1, MYH3, ACTN2, etc.). Per 10 μL reaction: RNA (1:10 dilution lysate) 2 μL, Fast Advanced Taqman Master Mix (2×) 5 μL, RT enzyme mix (40×) 0.25 μL, Taqman probe set (20×) 0.5 μL, H2O 2.25 μL. The following reaction protocol was run on the QuantStudio 7: 48° C. for 15 min, 50° C. for 2 min, 95° C. for 30 sec, 40×, 95° C. for 5 sec, 60° C. for 30 sec, then plates were read as specified by the manufacturer (Thermo). For 1-step RT-Preamplification used for detection of DUX4 downstream genes, i.e. MBD3L2, ZSCAN4, LEUTX, TRIM43, KHDC1L. POL2RA-VIC was used as Endogenous control). Per 10 μL reaction: RNA (1:10 dilution lysate) 2.25 μL, Taqman Pre-Amp Master Mix (2×) 5 μL, RT enzyme mix (40×) 0.25 μL, Taqman probe set (0.2×)*2.5 μL, * Pooling the TaqMan Assays: equal volumes of each 20× TaqMan® Gene Expression Assay, up to 100 assays were combined. For example, to pool 50 TaqMan assays, 10 μL of each assay were combined in a microcentrifuge tube. The pooled TaqMan assays were diluted using 1×TE buffer so that each assay is at a final concentration of 0.2×. For the above example, add 500 μL of 1×TE buffer to the pooled TaqMan assays for a total final volume of 1 mL. The QuantStudio7 protocol was used 48° C. 15 min, 95° C. 10 min, 10 cycles: 95° C. 15 sec, 60° C. 4 min, 4° C. infinite. Samples were then diluted to 50 μL and continue with the qPCR step. Per 10 μL reaction: Preamp dilution 2 μL, Fast Advanced Taqman Master Mix (2×) 5 μL, Taqman probe set (20×) 0.5 μL, H2O 2.5 μL. When multiplexing the volume was adjusted to 10 μL total). The following program was run on the QuantStudio7: 50° C. for 2 min, 95° C. for 30 sec, 40×, 95° C. for 5 sec, 60° C. for 30 sec, plates were read as per the manufacturers specifications (Thermo).
(§5) After treatment, the control and treated cells were processed for realtime PCR quantification of MBD3L2 mRNA (DUX4 downstream gene) and myogenin (MYOG) mRNA (control) expression.

myogenin (MYOG) mRNA = test: Myogenin (MYOG) mRNA expression by qPCR in FSHD myotubes (control gene)
Procedure: as §2, §1, §3
as §4, with “For the above example, add 500 μL of 1×TE buffer to the pooled TaqMan assays for a total final volume of 1 mL. The QuantStudio7 protocol was used 48° C. 15 min, 95° C. 10 min, 10 cycles: 95° C. 15 sec, 60° C. 4 min, 4° C. infinite. Samples were then diluted to 50 μL and continue with the qPCR step. Per 10 μL reaction: Preamp dilution 2 μL, Fast Advanced Taqman Master Mix (2×) 5 μL, Taqman probe set (20×) 0.5 μL, H2O 2.5 μL. When multiplexing the volume was adjusted to 10 μL total).” left out
as §5

For `Cn1c(=O)c(Oc2ccc(F)cc2F)cc2cnc(NC(CCO)CCO)nc21` [Pamapimod, 6-(2,4-difluorophenoxy)-2-((1,5-dihydroxypentan-3-yl)amino)-8-methylpyrido[2,3-d]pyrimidin-7(8H)-one], the differentiation into myotubes (FSHD myotubes) was “without impacting”, the “MBD3L2 mRNA expression” value ([1]; FSHD1 and FSHD2 primary patient myoblast lines, 1 μM) was “reduction of MBD3L2” and the “MBD3L2 downstream gene mRNA levels normalized to POLR2A mRNA” value ([1]; FSHD myotubes, 10, 100, and 1000 nM vs DMSO) was “dose-dependently reduced”. The IC50 ([1]; Homo sapiens, Myotube, read-out: IC50, reduction of MBD3L2 mRNA expression, FSHD myotubes, realtime PCR) was less than 10 nM, the MBD3L2 expression levels ([1]; myotubes of four FSHD patient lines FTCE-016, -020, -197, -196, 1 μM) was “reduced in all of the FSHD lines” and the “MYOG mRNA expression” value (myogenin (MYOG) mRNA) was “no impact”.
